Patent US20240197735A1, “METHODS AND COMPOSITIONS COMPRISING A BRAF INHIBITOR AND A PD-1 BINDING ANTAGONIST” (Hoffmann-La Roche Inc., priority 2021, published 2024)

Legend:
CRAF = CRAF (Homo sapiens (Human), UniProt P04049); assay: Kd affinity for CRAF kinase; assay type: binding
[1] = system: P-ERK in HCT116 cells expressing WT BRAF; assay: HTRF assay for P-ERK determination in HCT116 cells (paradoxical BRAF activation); assay type: cell-based; conditions: HCT-116 cells; for EC50: read-out: p-ERK EC50 (nM) conc. (nM) at which the compound induces P-ERK activation of 50% of that induced by dabrafenib (Positive control paradox inducer) HCT-116, 1 hour drug incubation, not applicable if activation does not reach 50% of dabrafenib maximum; for Percentage of Maximum paradox inducing effect from dabrafenib: maximum P-ERK signal as percentage of highest dabrafenib signal within dose range tested
Experimental: (§1) A375 is a cellular cancer model expressing V600E mutated BRAF and HCT116 a cellular cancer model expressing WT BRAF. […] ERK 1,2 phosphorylation (terminal member of the phosphorylation cascade of the MAPK pathway) is hereafter reported as main readout for the activation status of the MAPK pathway. Prior to the assay, A375 and HCT116 cell lines are maintained in DMEM no-phenol red medium supplemented with 10% fetal bovine serum (FBS). […] Briefly, 8000 cells/well in 12 μl media/well are plated in the 384-well plate and left overnight in the incubator (at 37° C. with 5% CO2-humidified atmosphere), the following day the plate is treated in duplicate with test compounds, dabrafenib and PLX8394 (the latter two as controls) at the following final drug concentrations: 10 μM-3 μM-1 μM-0.3 μM-0.1 μM-0.03 μM-0.01 μM-0.003 μM-0.001 μM, all wells are subjected to DMSO normalization and drug incubation occurs for 1 hour. Then, 4 μl of a 4× lysis buffer supplied with the kit are added to the wells, the plate is then centrifuged for 30 second (300 rcf) and incubated on a plate shaker for 1 h at RT.
(§2) At the end of the incubation 4 μL/well of advanced P-ERK antibody solution (prepared according to manufacturer's instruction) followed by 4 μL/well of criptate P-ERK antibody solution (prepared according to manufacturer's instruction) (Cisbio cat #64AERPEH) are added to test wells.
(§3) In order to allow proper data normalization control wells without drug treatment reported are always included in each plate (according to manufacturer's instruction):
(§4) The plate is then centrifuged at 300 rcf for 30 second, sealed to prevent evaporation and incubated overnight in the dark at room temperature.
The plate is then analyzed and fluorescence emission value collected through a Pherastast FSX (BMG Labtech) apparatus at […].
(§5) The obtained fluorescence values are processed according to the formula Ratio=[…]*10000 then the average of the ratio on the blank is subtracted to all values.
Individual points are fitted with either sigmoidal or bell shape curves, and the percentage of activation compared to maximum dabrafenib-mediated activation is determined. The EC50 is the concentration at which activation equal to 50% of the maximum achieved by dabrafenib is obtained.
The Percentage of Maximum paradox inducing effect from dabrafenib is determined by evaluating the percentage at which the test compound induce its maximum P-ERK signal as percentage of the highest signal produced by dabrafenib within the dose range tested.

[2] = target: C-terminal Src kinase (CSK) (Homo sapiens (Human), UniProt P41240); assay: Kd affinity for C-terminal Src kinase (selectivity); assay type: binding
BRAF V600E = BRAF V600E (Homo sapiens (Human), UniProt P15056, V600E); assay: Kd affinity for BRAF V600E kinase; assay type: binding
[3] = system: P-ERK in A375 cells expressing V600E mutated BRAF; assay: HTRF assay for P-ERK determination in A375 cells (BRAF inhibition); assay type: cell-based; conditions: Homo sapiens, A-375, 1 h, read-out: pERK IC50 (nM) A375
Experimental: as §1, §2, §3, §4, §5
Mean of the normalized points are fitted with sigmoidal curve and IC50 determined.

[4] = target: lymphocyte-specific tyrosine protein kinase (LCK) (Homo sapiens (Human), UniProt P06239); assay: Kd affinity for lymphocyte-specific tyrosine protein kinase (selectivity); assay type: binding
BRAF = BRAF (Homo sapiens (Human), UniProt P15056); assay: Kd affinity for BRAF kinase; assay type: binding
[5] = system: YUMM1.7 tumors, immune cell infiltrate (mCD45, mCD3); assay: Immuno-phenotyping of YUMM1.7 tumors by flow cytometry and IHC; assay type: in vivo, mouse (C57/BL6)
Experimental: FIG. 6 reports the total immune cell (top) and T-cell (bottom) infiltrates in tumors, as quantified through flow cytometry. Total immune cell infiltrate was expressed as percentage of mCD45 positive with respect to the alive cells at day 3 and day 6, and T-cell infiltrate expressed in mCD3 positive cells per mm2.
FIG. 7 reports the immunohistochemistry analysis of the mouse immune cell marker CD45 of tumors treated for 3 days with either Vehicle, Compound Ia at 5 mg/kg (daily), mPD1 at 12.5 mg/kg (single treatment) or a combination thereof.
For the immunohistochemical analysis, female C57/BL6 mice were injected subQ with YUMM1.7 cells. When tumors reached around 250 mm^3 (day 14) mice were treated with either Compound Ia at 1 or 5 mg/kg daily (oral administration), with anti-mouse PD1 at 12.5 mg/kg once (single intraveneous administration) or the combination of Compound Ia and anti-mPD1. Mice were sacrificed and tumors collected upon 3 or five days from the beginning of the treatment and tumors were either digested and utilized for cytofluorimetric analysis of fixed and paraffin embedded.

[6] = system: YUMM1.7 tumors (BRAF V600E); assay: In vivo antitumor activity on YUMM1.7 syngeneic allograft tumors; parameters: species or system mouse (C57BL/6); conditions: combination of Compound Ia (1 or 5 mg/kg PO QD) and mouse anti PD-1 antibody (IV once a week); monitored until day 58
Experimental: Mice were treated until day 31 and afterwards drug treatments were suspended and mice were monitored for evidences of tumor regrowth.
Mice were treated until day 45 and afterwards drug treatments were suspended and mice were monitored for evidences of tumor regrowth.
In the in vivo studies, female mice 7-9 weeks old (at experiment initiation) of the immunocompetent strain C57BL/6 were utilized. The experiment was performed at the Contract Research Organization (CRO) Covance that sourced mice, performed tumor establishment, drug treatment and tumor monitoring.
For xenograft establishment YUMM1.7 cells were suspended in a media composed of 50% Matrigel and 50% Hank's balanced Salt Solution and injected subcutaneously on the right flanks. When tumor volume reached around 100 mm^3 mice were randomized prior treatment.
Mice were implanted with the cell line YUMM1.7 harboring the BRAF V600E mutation. Upon tumor establishment (100 mm3) mice were randomized and received orally (PO) once per day (QD) either Compound Ia (1 mg/kg or 5 mg/kg), mouse anti PD-1 antibody through IV injection, once a week or the respective combinations of PD-1 and Compound Ia at 1 or 5 mg/kg. […] Upon treatment conclusion mice were monitored until day 58 for signs of tumor relapse.

[7] = system: P-ERK in A375 BRAF V600E NRAS Q61K cells; assay: P-ERK levels in first generation BRAFi resistant cell model A375 BRAF V600E NRAS Q61K; assay type: cell-based

C-terminal Src kinase (CSK), sequence (P41240 whole entry): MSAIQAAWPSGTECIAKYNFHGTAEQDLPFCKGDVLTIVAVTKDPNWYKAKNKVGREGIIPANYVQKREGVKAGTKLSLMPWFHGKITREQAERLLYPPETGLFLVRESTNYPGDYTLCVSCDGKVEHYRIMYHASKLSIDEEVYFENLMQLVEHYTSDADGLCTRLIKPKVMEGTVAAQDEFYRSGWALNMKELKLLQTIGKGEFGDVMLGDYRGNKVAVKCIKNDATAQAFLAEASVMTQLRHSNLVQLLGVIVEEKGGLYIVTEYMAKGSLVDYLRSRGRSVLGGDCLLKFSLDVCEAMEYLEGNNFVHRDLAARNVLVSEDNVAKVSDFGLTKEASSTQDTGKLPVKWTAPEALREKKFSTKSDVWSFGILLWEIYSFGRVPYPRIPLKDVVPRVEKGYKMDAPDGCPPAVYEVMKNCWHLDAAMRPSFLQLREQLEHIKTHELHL
CRAF, sequence (P04049 whole entry): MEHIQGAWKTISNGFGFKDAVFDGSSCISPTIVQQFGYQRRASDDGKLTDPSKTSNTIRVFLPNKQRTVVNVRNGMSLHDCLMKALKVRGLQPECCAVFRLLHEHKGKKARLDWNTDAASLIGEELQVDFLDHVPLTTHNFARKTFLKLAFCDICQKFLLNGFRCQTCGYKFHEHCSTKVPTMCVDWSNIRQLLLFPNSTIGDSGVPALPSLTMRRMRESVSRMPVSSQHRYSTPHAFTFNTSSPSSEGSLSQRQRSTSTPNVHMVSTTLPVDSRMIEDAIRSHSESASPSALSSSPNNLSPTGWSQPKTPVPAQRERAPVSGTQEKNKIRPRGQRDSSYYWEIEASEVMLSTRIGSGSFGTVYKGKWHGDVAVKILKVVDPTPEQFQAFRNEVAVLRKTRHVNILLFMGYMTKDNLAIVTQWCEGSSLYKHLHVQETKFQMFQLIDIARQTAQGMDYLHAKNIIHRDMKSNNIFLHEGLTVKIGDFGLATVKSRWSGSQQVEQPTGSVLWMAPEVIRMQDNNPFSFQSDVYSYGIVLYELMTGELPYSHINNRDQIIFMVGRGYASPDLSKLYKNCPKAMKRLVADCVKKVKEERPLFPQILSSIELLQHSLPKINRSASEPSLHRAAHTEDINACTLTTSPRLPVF
BRAF, sequence (P15056 whole entry): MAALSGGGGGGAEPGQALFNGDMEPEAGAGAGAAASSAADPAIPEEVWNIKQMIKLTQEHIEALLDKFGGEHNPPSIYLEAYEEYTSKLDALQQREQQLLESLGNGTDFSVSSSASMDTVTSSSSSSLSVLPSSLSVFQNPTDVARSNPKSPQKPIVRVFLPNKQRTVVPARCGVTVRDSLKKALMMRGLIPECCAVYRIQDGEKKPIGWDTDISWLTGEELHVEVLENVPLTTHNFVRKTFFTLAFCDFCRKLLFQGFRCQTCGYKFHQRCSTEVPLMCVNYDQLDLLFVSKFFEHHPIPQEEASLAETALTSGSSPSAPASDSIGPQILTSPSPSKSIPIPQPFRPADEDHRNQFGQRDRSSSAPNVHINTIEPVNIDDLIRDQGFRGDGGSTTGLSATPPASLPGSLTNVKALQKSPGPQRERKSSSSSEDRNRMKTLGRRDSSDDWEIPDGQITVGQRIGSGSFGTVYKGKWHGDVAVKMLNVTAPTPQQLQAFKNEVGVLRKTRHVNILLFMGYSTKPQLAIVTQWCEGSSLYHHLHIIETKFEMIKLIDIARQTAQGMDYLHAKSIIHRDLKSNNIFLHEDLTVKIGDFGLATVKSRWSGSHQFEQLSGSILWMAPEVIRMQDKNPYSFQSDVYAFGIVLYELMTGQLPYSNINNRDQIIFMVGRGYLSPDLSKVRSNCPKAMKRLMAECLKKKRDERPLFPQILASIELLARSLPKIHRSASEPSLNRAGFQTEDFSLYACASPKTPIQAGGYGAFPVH
BRAF V600E, sequence (P15056 whole entry V600E): as the sequence (P15056 whole entry) above, with V600E counted along it
lymphocyte-specific tyrosine protein kinase (LCK), sequence (P06239 whole entry): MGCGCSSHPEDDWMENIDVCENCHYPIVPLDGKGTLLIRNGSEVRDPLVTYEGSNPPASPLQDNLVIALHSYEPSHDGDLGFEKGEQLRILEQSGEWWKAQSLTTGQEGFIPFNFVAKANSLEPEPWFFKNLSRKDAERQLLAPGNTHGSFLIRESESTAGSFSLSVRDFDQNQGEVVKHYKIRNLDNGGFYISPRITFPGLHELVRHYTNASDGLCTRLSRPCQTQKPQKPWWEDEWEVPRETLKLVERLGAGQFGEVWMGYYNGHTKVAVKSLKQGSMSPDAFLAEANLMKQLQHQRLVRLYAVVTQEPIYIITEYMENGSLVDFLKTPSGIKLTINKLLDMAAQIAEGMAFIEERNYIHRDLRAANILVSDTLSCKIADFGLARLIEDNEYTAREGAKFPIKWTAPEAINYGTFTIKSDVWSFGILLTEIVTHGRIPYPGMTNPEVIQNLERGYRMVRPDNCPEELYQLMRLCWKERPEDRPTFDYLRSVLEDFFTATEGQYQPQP

Structure (SMILES): CCCS(=O)(=O)Nc1ccc(F)c(Oc2ccc3ncn(C)c(=O)c3c2)c1C#N [AR-25]
- Kd (CRAF): 0.3 nM
- EC50 [1]: 9.6 nM
- Kd [2]: > 40000 nM
- Kd (BRAF V600E): 0.2 nM
- IC50 [3]: 1.1 nM
- Kd [4]: > 40000 nM
- Kd (BRAF): 0.1 nM

Structure (SMILES): CN(C)S(=O)(=O)Nc1ccc(Cl)c(Nc2ccc3ncn(C)c(=O)c3c2)c1F [AR-30]
- Kd (CRAF): 822 nM
- Percentage of Maximum paradox inducing effect from dabrafenib [1]: 59%
- EC50 [1]: > 1000 nM
- Kd [2]: 8010 nM
- Kd (BRAF V600E): 504 nM
- IC50 [3]: 406 nM
- Kd [4]: 10400 nM
- Kd (BRAF): 174 nM

Structure (SMILES): Cn1cnc2ccc(Nc3c(Cl)ccc(NS(=O)(=O)N4CCCC4)c3F)cc2c1=O [AR-31]
- Kd (CRAF): 190 nM
- Percentage of Maximum paradox inducing effect from dabrafenib [1]: 51.2%
- EC50 [1]: > 1000 nM
- Kd [2]: 1210 nM
- Kd (BRAF V600E): 119 nM
- IC50 [3]: 311 nM
- Kd [4]: 12000 nM
- Kd (BRAF): 45.9 nM

Structure (SMILES): Cn1cnc2ccc(Oc3c(F)ccc(NS(=O)(=O)N4CC[C@@H](F)C4)c3C#N)cc2c1=O [Ex. 1, (3R)-N-[2-cyano-4-fluoro-3-(3-methyl-4-oxo-quinazolin-6-yl)oxy-phenyl]-3-fluoro-pyrrolidine-1-sulfonamide]
- Percentage of Maximum paradox inducing effect from dabrafenib [1]: 43.65%
- antitumor response ([5]; YUMM1.7 tumors, Compound Ia oral daily): robust antitumor response
- recruitment of inflammatory infiltrate in tumors ([5]; flow cytometry and IHC data): triggers recruitment of inflammatory infiltrate
- number of mice showing disease relapse [6]: strong impact
- P-ERK reduction in combination with MEKi cobimetinib ([7]; combination with cobimetinib at fixed dose of 10 nM, compared with encorafenib/binimetinib): superior P-ERK reduction
- P-ERK inhibition as single agent ([7]; single agent, compared with Encorafenib): potent P-ERK inhibition
